{
  "source": "patent US6506767B1",
  "about": "“8-chloro-6,11-dihydro-11-(4-piperidylidine)-5H-benzo[5,6]cyclohepta[1-2-b] pyridine” (Schering Corporation, priority 1997, dated 2003)",
  "key": {"[1]": {"assay": "Stability testing for crystalline polymorph form 1", "type": "physicochemical", "details": "25, 30 and 40° C. at relative humidities of 60%, 60% and 75%, respectively"}, "[2]": {"tested_on": "histamine—induced lethality in guinea pigs", "assay": "prevention of histamine-induced lethality in guinea pigs", "type": "in vivo", "details": "standard animal model"}},
  "data": [
    {"smiles": "Clc1ccc2c(c1)CCc1cccnc1C2=C1CCNCC1", "note": "[form 1, 8-chloro-6,11-dihydro-11-(4-piperidylidene)-5H-benzo[5,6]cyclohepta[1,2-b]pyridine]", "values": [
      {"measurement": "change from initial sample % form 1 and related compounds", "setting": "[1]", "result": "< 1", "unit": "%"},
      {"measurement": "antihistaminic properties: prevention of histamine—induced lethality", "setting": "[2]", "result": "demonstrated"}
    ]}
  ]
}
